Results as given in EP0745595A1, “3-(3-Aryloxyphenyl)-1-(substituted methyl)-s-triazine-2,4,6-oxo or thiotrione herbicidal agents” (American Cyanamid Company, priority 1995, dated 1996).

Legend:
Type in all cases: in vivo
GALIUM APARINE = assay: Preemergence herbicidal evaluation, GALAP (Galium); settings: rated four to five weeks after treatment
Source text: (§1) Results of herbicide evaluation are expressed on a rating scale (0-9). The scale is based upon a visual observation of plant stand, vigor, malformation, size, chlorosis and overall plant appearance as compared with a control.
(§2) The preemergence herbicidal activity of the test compounds of the present invention is exemplified by the following tests in which the seeds of a variety of monocotyledonous and dicotyledonous plants are separately mixed with potting soil and planted on top of approximately one inch of soil in separate pint cups. […] The treated cups are then placed on greenhouse benches, watered and cared for in accordance with conventional greenhouse procedures. From four to five weeks after treatment, the tests are terminated and each cup is examined and rated according to the rating system provided in Example 40.
(§3) The compounds evaluated are reported by compound number given in Example 40.

CHENOPODIUM ALBUM, L. = assay: Preemergence herbicidal evaluation, CHEAL (Lambsquarters, Common); settings: rated four to five weeks after treatment
Outline: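 Injury scored visually (0–9; stand, vigor, malformation, size, chlorosis) versus untreated control, four to five weeks post-treatment. Application: aqueous acetone spray onto freshly planted soil cups, equivalent to about 0.125 to 0.50 kg/ha, plants then kept under standard greenhouse care.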

ZEA MAYS L. = assay: Preemergence herbicidal evaluation, ZEAMX (Corn, Field); settings: rated four to five weeks after treatment
Source text: as §1, §2, §3

[1] = test system: ORYZA SATIVA, L. TEBONNET; assay: Rice tolerance to post-transplant applications under flooded paddy conditions, ORYSAT (Rice, Tebonnet); settings: post-transplant rice, 3-4 weeks after treatment
Outline: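 Rated on a visual 0–9 scale against untreated plants 3–4 weeks after application, rice (cv. Tebonnet) tolerance was tested by applying compounds (approx. 0.5–0.063 kg/ha, acetone/water 50/50) to flooded soil three days post-transplant, water kept 1.5–3 cm deep.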

[2] = test system: ECHINOCHLOA ORYZOIDES (ARD.)FRITSCH; assay: Preemergence weed control under flooded paddy conditions, ECHORC (Watergrass (Calif.)); settings: preemergence, 3-4 weeks after treatment
Outline: (§4)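 Visual 0-9 rating against untreated control, covering stand, vigor, malformation, size and chlorosis, scored three to four weeks post-treatment in a greenhouse. Application was into 1.5-3 cm flood water over silt loam sown at 0.5 cm. The 50/50 v/v aqueous/acetone doses were about 0.5, 0.25, 0.125 and 0.063 kg/ha.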

[3] = test system: ABUTILON THEOPHRASTI, MEDIC.; assay: Postemergence herbicidal evaluation, ABUTH (Velvetleaf); settings: rated four to five weeks after treatment, averaged
Outline: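 This postemergence herbicide test used two-week-old velvetleaf seedlings grown in jiffy flats. Each compound was sprayed at 40 psi as a dispersion in 50/50 acetone/water with 0.5% TWEEN®20 surfactant. Plants then received routine greenhouse care. After four to five weeks, injury was scored visually on a 0-9 scale against a control, and replicate tests were averaged.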

[…], PRESL. = Preemergence weed control under flooded paddy conditions, MOOVA (Monochoria); settings: preemergence, 3-4 weeks after treatment
Outline: as §4

[4] = test system: ECHINOCHLOA CRUS-GALLI, (L) BEAU; assay: Preemergence herbicidal evaluation, ECHCG (Barnyardgrass); settings: rated four to five weeks after treatment
Source text: as §1, §2, §3

[5] = test system: GLYCINE MAX(L) MERR. CV. WILLIAMS; assay: Postemergence herbicidal evaluation, GLXMAW (Soybean, Williams); settings: crop, rated four to five weeks after treatment, averaged
Outline: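 Herbicidal injury to Williams soybean was assessed after a postemergence spray of two-week-old seedlings grown in jiffy flats. Compounds were dispersed in an acetone/water (50/50) mixture with 0.5% TWEEN®20 surfactant and applied at 40 psi. After four to five weeks in the greenhouse, stand, vigor, malformation, size and chlorosis were compared against a control on a 0-9 scale, and results from replicate tests were averaged.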

SAGITTARIA PYGMAEA, L. = assay: Preemergence weed control under flooded paddy conditions, SAGPY (Arrowhead (Pygmaea)); settings: preemergence, 3-4 weeks after treatment
Outline: as §4

[6] = test system: CYPERUS SEROTINUS, ROTTB.; assay: Preemergence weed control under flooded paddy conditions, CYPSE (Flatsedge); settings: preemergence, 3-4 weeks after treatment
Outline: as §4

CASSIA OBTUSIFOLIA, L. = assay: Preemergence herbicidal evaluation, CASOB (Sicklepod); settings: Rate 0.500 kg/ha, rated four to five weeks after treatment
Source text: as §1, §2, §3

Cn1c(=O)n(CC(=O)OC(C)(C)C)c(=O)n(-c2cc(Oc3c(F)cc(C(F)(F)F)cc3Cl)ccc2[N+](=O)[O-])c1=O [Compound 17, Tert-butyl 3-{5-[(2-chloro-α,α,α,6-tetra-fluoro-p-tolyl)oxy]-2-nitrophenyl}tetra-hydro-5-methyl-2,4,6-trioxo-s-triazine-1(2H)-acetate]
GALAP herbicidal rating (GALIUM APARINE; Rate 0.125 kg/ha): 9.0
GALAP herbicidal rating (GALIUM APARINE; Rate 0.250 kg/ha): 9.0
GALAP herbicidal rating (GALIUM APARINE; Rate 0.500 kg/ha): 9.0
CHEAL herbicidal rating (CHENOPODIUM ALBUM, L.; Rate 0.125 kg/ha): 9.0
CHEAL herbicidal rating (CHENOPODIUM ALBUM, L.; Rate 0.250 kg/ha): 9.0
CHEAL herbicidal rating (CHENOPODIUM ALBUM, L.; Rate 0.500 kg/ha): 9.0
ZEAMX herbicidal rating (ZEA MAYS L.; Rate 0.125 kg/ha): 0.0
ZEAMX herbicidal rating (ZEA MAYS L.; Rate 0.250 kg/ha): 0.0
ZEAMX herbicidal rating (ZEA MAYS L.; Rate 0.500 kg/ha): 0.0
Herbicidal effect rating, ORYSAT ([1]; 0.125 kg/ha): 3.0
Herbicidal effect rating, ORYSAT ([1]; 0.250 kg/ha): 3.0
Herbicidal effect rating, ORYSAT ([1]; 0.500 kg/ha): 2.0
Herbicidal effect rating, ECHORC ([2]; 0.125 kg/ha): 9.0
Herbicidal effect rating, ECHORC ([2]; 0.250 kg/ha): 9.0
Herbicidal effect rating, ECHORC ([2]; 0.500 kg/ha): 9.0
ABUTH, herbicide rating (0-9) ([3]; Rate 0.125 kg/ha): 9.0
ABUTH, herbicide rating (0-9) ([3]; Rate 0.250 kg/ha): 9.0
ABUTH, herbicide rating (0-9) ([3]; Rate 0.500 kg/ha): 9.0
Herbicidal effect rating, MOOVA ([…], PRESL.; 0.125 kg/ha): 9.0
Herbicidal effect rating, MOOVA ([…], PRESL.; 0.250 kg/ha): 9.0
Herbicidal effect rating, MOOVA ([…], PRESL.; 0.500 kg/ha): 9.0
ECHCG herbicidal rating ([4]; Rate 0.125 kg/ha): 0.0
ECHCG herbicidal rating ([4]; Rate 0.250 kg/ha): 0.0
ECHCG herbicidal rating ([4]; Rate 0.500 kg/ha): 0.0

COC(=O)Cn1c(=O)n(C)c(=O)n(-c2cc(Oc3ccc(F)cc3C(F)(F)F)ccc2[N+](=O)[O-])c1=O [Compound 21]
GLXMAW, herbicide rating (0-9) ([5]; Rate 0.125 kg/ha): 4.0
GLXMAW, herbicide rating (0-9) ([5]; Rate 0.250 kg/ha): 4.0
GLXMAW, herbicide rating (0-9) ([5]; Rate 0.500 kg/ha): 4.0
GALAP herbicidal rating (GALIUM APARINE; Rate 0.500 kg/ha): 9.0
Herbicidal effect rating, SAGPY (SAGITTARIA PYGMAEA, L.; 0.063 kg/ha): 0.0
Herbicidal effect rating, SAGPY (SAGITTARIA PYGMAEA, L.; 0.125 kg/ha): 0.0
Herbicidal effect rating, SAGPY (SAGITTARIA PYGMAEA, L.; 0.250 kg/ha): 0.0
Herbicidal effect rating, SAGPY (SAGITTARIA PYGMAEA, L.; 0.500 kg/ha): 0.0
Herbicidal effect rating, ORYSAT ([1]; 0.063 kg/ha): 0.0
Herbicidal effect rating, ORYSAT ([1]; 0.125 kg/ha): 0.0
Herbicidal effect rating, ORYSAT ([1]; 0.250 kg/ha): 0.0
Herbicidal effect rating, ORYSAT ([1]; 0.500 kg/ha): 0.5
Herbicidal effect rating, CYPSE ([6]; 0.063 kg/ha): 0.0
Herbicidal effect rating, CYPSE ([6]; 0.125 kg/ha): 0.0
Herbicidal effect rating, CYPSE ([6]; 0.250 kg/ha): 0.0
Herbicidal effect rating, CYPSE ([6]; 0.500 kg/ha): 0.0
CASOB herbicidal rating (CASSIA OBTUSIFOLIA, L.): 7.0
